What was measured:
Format in all cases: biochemical
[1] = Superoxide radical absorbance capacity (SORAC) test, WST-1 probe; settings: activity grade 0-4
Experimental: Superoxide radical absorbance capacity tests were conducted to measure the capacity of an antioxidant material to dismutate superoxide anion. The Varioskan Flush was employed to measure the superoxide dismutase-catalyzed dismutation of the superoxide anion in the presence of the absorbance probe, water-soluble tetrazolium salt (WST-1). The superoxide radical antioxidant (SORAC) assay is based on an inhibition assay and is suitable for evaluating superoxide dismutase or superoxide dismutase-like activities in samples.

[2] = Peroxynitrite radical absorbance capacity test, dihydrorhodamine 123 indicator; settings: activity grade 0-4
Experimental: Peroxynitrite radical absorbance capacity tests were conducted to measure the capacity of an antioxidant material to quench peroxynitrite. Dihydrorhodamine 123 was used as an indicator of peroxynitrite in tubo for peroxynitrite radical absorbance capacity tests with Varioskan Flush. […]

[3] = Melanin oxidation assay (peroxynitrite/melanin chemiluminescence quenching); settings: peroxynitrite, melanin and DBAS in DMSO; measured at 150 seconds and 500 seconds
Description: An easy and fast assay was developed to measure quenching of chemiluminescence from the triplet carbonyl of a cleaved dioxetane that was created when peroxynitrite (ONOO—) reacted with melanin. As such, it measured both triplet quenching and any scavenging activity that prevented the chemiexcitation reaction from starting. DMSO was used as a solvent for the entire reaction, DBAS to enhance the luminescence and a liquid scintillation counter set to single-photon mode to detect the luminescence signal.
In this assay, peroxynitrite, melanin, and DBAS were incubated in DMSO in the absence or presence of test agents, and light emission quenching (%) was measured at 150 seconds and 500 seconds (FIG. 1).

Compound | Anti-superoxide [1] | Anti-peroxynitrite [2] | light emission quenching (hit) [3]
O=C(O[C@@H]1Cc2c(O)cc(O)cc2O[C@@H]1c1cc(O)c(O)c(O)c1)c1cc(O)c(O)c(O)c1 [Epigallocatechin Gallate] | 4 | 4 | showed a quenching effect
CC1=C(/C=C/C(C)=C/C=C/C(C)=C/C=C/C=C(C)/C=C/C=C(C)/C=C/C2=C(C)CCCC2(C)C)C(C)(C)CCC1 [beta-carotene] |  |  | showed a quenching effect
CC(C)=CCC/C(C)=C/CC/C(C)=C/CC/C=C(\C)CC/C=C(\C)CCC=C(C)C [squalene] |  |  | showed a quenching effect
O=C(O)c1cccc(C(=O)O)n1 [dipicolinic acid] |  |  | showed a quenching effect
COc1cc(/C=C/C(=O)O)ccc1O [Ferulic Acid] | 1 | 4 | showed a quenching effect
O=c1oc2c(O)c(O)cc3c(=O)oc4c(O)c(O)cc1c4c23 [Ellagic acid] | 2 | 4 | showed a quenching effect
C/C=C/C=C/C(=O)O [sorbic acid] |  |  | showed a quenching effect

From patent US20230310534A1, “QUENCHERS THAT SLOW, DECREASE, OR INHIBIT THE FORMATION OF CHEMIEXCITATION-INDUCED CYCLOBUTANE PYRIMIDINE DIMERS” (L'OREAL, priority 2017, published 2023)
